# ChEMBL document CHEMBL4020792, “Sialidase inhibitory activity of diarylnonanoid and neolignan compounds extracted from the seeds of Myristica fragrans” (Bioorg Med Chem Lett, 2017)
# Columns and labels:
# [1] = (§1) Inhibition of Streptococcus pneumoniae sialidase NanB using 4-methylumbelliferyl-alpha-D-N-acetylneuraminic acid as substrate after 60 mins by FRET assay
# Streptococcus pneumoniae [2] = test: as §1
# [3] = molecular target: Sialidase A (Streptococcus pneumoniae) (UniProt P62575); test: (§2) Inhibition of Streptococcus pneumoniae sialidase NanA using 4-methylumbelliferyl-alpha-D-N-acetylneuraminic acid as substrate after 60 mins by FRET assay
# Sequence of Sialidase A (Streptococcus pneumoniae) (P62575 whole entry): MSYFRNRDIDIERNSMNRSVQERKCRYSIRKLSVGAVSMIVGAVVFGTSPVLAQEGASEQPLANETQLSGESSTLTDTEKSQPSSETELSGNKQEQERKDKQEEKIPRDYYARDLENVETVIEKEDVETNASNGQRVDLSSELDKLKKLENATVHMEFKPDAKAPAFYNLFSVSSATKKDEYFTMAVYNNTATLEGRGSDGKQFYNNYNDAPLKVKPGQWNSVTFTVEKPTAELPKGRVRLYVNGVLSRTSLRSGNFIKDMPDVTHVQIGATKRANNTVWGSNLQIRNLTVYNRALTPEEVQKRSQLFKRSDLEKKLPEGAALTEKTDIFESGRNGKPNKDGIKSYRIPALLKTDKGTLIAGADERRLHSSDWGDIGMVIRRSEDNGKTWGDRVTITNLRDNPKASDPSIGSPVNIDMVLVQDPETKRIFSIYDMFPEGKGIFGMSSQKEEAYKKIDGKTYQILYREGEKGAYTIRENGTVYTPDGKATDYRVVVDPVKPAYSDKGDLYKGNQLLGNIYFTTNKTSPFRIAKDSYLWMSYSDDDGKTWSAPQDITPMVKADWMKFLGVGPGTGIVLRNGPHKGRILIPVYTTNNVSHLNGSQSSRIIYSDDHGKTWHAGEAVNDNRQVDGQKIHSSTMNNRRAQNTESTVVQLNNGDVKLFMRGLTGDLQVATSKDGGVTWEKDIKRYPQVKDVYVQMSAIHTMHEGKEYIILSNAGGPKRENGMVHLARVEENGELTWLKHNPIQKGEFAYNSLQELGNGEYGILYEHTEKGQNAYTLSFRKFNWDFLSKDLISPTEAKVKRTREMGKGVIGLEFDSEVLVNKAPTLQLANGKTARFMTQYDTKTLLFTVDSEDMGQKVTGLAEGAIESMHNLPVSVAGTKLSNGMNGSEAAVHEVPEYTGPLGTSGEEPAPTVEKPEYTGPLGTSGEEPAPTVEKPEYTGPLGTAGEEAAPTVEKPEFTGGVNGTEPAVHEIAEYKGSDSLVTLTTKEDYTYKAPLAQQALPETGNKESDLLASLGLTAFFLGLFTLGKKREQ
# Sialidase A [4] = molecular target: T1, Sialidase A (Streptococcus pneumoniae, UniProt P62575); test: as §2
# T1 sequence (P62575 whole entry): as above
# Sialidase A [5] = molecular target: T1, Sialidase A; test: Noncompetitive inhibition of Streptococcus pneumoniae sialidase NanA using 4-methylumbelliferyl-alpha-D-N-acetylneuraminic acid as substrate after 60 mins by Lineweaver-Burk plot/Dixon plot analysis
# [6] = (§3) Inhibition of Streptococcus pneumoniae sialidase NanC using 4-methylumbelliferyl-alpha-D-N-acetylneuraminic acid as substrate after 60 mins by FRET assay
# Streptococcus pneumoniae [7] = test: as §3
# [8] = Noncompetitive inhibition of Streptococcus pneumoniae sialidase NanB using 4-methylumbelliferyl-alpha-D-N-acetylneuraminic acid as substrate after 60 mins by Lineweaver-Burk plot/Dixon plot analysis
# [9] = Noncompetitive inhibition of Streptococcus pneumoniae sialidase NanC using 4-methylumbelliferyl-alpha-D-N-acetylneuraminic acid as substrate after 60 mins by Lineweaver-Burk plot/Dixon plot analysis
# Sialidase A [10] = molecular target: T1, Sialidase A; test: Competitive inhibition of Streptococcus pneumoniae sialidase NanA using 4-methylumbelliferyl-alpha-D-N-acetylneuraminic acid as substrate after 60 mins by Lineweaver-Burk plot/Dixon plot analysis
SMILES,IC50 ([1]; read-out: IC50),inhibition (Streptococcus pneumoniae [2]),inhibition [3],IC50 (Sialidase A [4]),Ki (Sialidase A [5]),IC50 ([6]; read-out: IC50),inhibition (Streptococcus pneumoniae [7]),Ki [8],Ki [9],IC50 [1],IC50 [6],Ki (Sialidase A [10])
COc1cc([C@H]2O[C@@H](c3ccc(O)c(OC)c3)[C@@H](C)[C@@H]2C)ccc1O,331 µM,Dose-dependent effect,Dose-dependent effect,37.2 µM,21.9 µM,274 µM,Dose-dependent effect,,,,,
C=CCc1cc(O)c(OC)c(O)c1,27.1 µM,Dose-dependent effect,Dose-dependent effect,2 µM,4.9 µM,60.5 µM,Dose-dependent effect,74 µM,91.8 µM,,,
COc1cc([C@@H](O)[C@@H](C)Oc2c(OC)cc(/C=C/CO)cc2OC)ccc1O,20.9 µM,Dose-dependent effect,Dose-dependent effect,1.6 µM,3 µM,24.6 µM,Dose-dependent effect,39.2 µM,37.8 µM,,,
C=CCc1cc(OC)c(O[C@@H](C)[C@H](O)c2ccc(O)c(OC)c2)c(OC)c1,229 µM,Dose-dependent effect,Dose-dependent effect,25.6 µM,15.1 µM,103 µM,Dose-dependent effect,,,,,
C/C=C/c1cc(OC)c2c(c1)[C@H](C)[C@@H](c1cc(OC)c3c(c1)OCO3)O2,92.1 µM,Dose-dependent effect,Dose-dependent effect,44.2 µM,47.5 µM,317 µM,Dose-dependent effect,,,,,
C=CCc1cc(OC)c(O[C@H](C)[C@H](OC(C)=O)c2ccc(OC)c(OC)c2)c(OC)c1,,,,295 µM,,,,,,Not Active,Not Active,
C/C=C/c1cc(OC)c2c(c1)[C@H](C)[C@@H](c1ccc3c(c1)OCO3)O2 [(-)-LICARIN B],14 µM,Dose-dependent effect,Dose-dependent effect,1.5 µM,1.3 µM,30.7 µM,Dose-dependent effect,13.5 µM,12.1 µM,,,
C/C=C/c1cc(OC)c2c(c1)[C@H](C)[C@@H](c1ccc(O)c(OC)c1)O2 [LICARIN A],95.8 µM,Dose-dependent effect,Dose-dependent effect,7.9 µM,9.4 µM,113 µM,Dose-dependent effect,,,,,
O=C(CCCCCCCCc1ccc(O)cc1)c1c(O)cccc1O [MALABARICONE B],5.7 µM,Dose-dependent effect,Dose-dependent effect,0.4 µM,,14.3 µM,Dose-dependent effect,5.6 µM,5.8 µM,,,0.5 µM
O=C(CCCCCCCCc1ccc(O)c(O)c1)c1c(O)cccc1O [MALABARICONE C],3.6 µM,Dose-dependent effect,Dose-dependent effect,0.3 µM,,2.9 µM,Dose-dependent effect,3 µM,2.1 µM,,,0.1 µM
C=CCc1cc(OC)c(O)c(OC)c1 [METHOXYEUGENOL],77.6 µM,Dose-dependent effect,Dose-dependent effect,6.9 µM,4.2 µM,33.6 µM,Dose-dependent effect,,30.2 µM,,,
